# Where two headings read alike, the source gives them in different places.
# Legend:
# Format in all cases: cell-based
# Escherichia coli = experiment: MIC by NCCLS broth microdilution, 1100 Japanese clinical isolates 1997-1998; conditions: for MIC50 / MIC90: Escherichia coli
# Aeromonas spp. [1] = experiment: MIC by agar dilution (NCCLS M7-A4), 288 enteropathogenic isolates, eight quinolones; conditions: Aeromonas spp. (n = 16)
# Klebsiella oxytoca = experiment: MIC by NCCLS broth microdilution, 1100 Japanese clinical isolates 1997-1998; conditions: Klebsiella oxytoca (n=40)
# Hafnia alvei = experiment: MIC by agar dilution (NCCLS M7-A4), 288 enteropathogenic isolates, gemifloxacin and 15 other antimicrobials; conditions: Hafnia alvei N= 32
# Staphylococcus aureus = experiment: microbe, parasite or virus in culture
# Haemophilus influenzae = experiment: MIC by broth microdilution (NCCLS), dried MicroScan panels, clinical isolates 1998-1999; conditions: for MIC90: Haemophilus influenzae
# Moraxella catarrhalis = experiment: MIC by two-fold serial agar dilution, Sensitivity Disk agar-N (Kitasato isolates); conditions: Moraxella catarrhalis (22)
# [2] = tested on: Staphylococcus epidermidis; experiment: MIC by NCCLS broth microdilution, 1100 Japanese clinical isolates 1997-1998; conditions: for MIC50 / MIC90: Staphylococcus epidermidis
# Enterococcus faecium = experiment: as above; conditions: for MIC: Enterococcus faecium
# P. aeruginosa = experiment: MIC by two-fold serial agar dilution, quinolone-resistant strains; conditions: Pseudomonas aeruginosa
# Yersinia enterocolitica = experiment: MIC by agar dilution (NCCLS M7-A4), 288 enteropathogenic isolates, gemifloxacin and 15 other antimicrobials; conditions: Yersinia enterocolitica N= 22
# Proteus vulgaris = experiment: MIC by NCCLS broth microdilution, 1100 Japanese clinical isolates 1997-1998
# Salmonella spp. [3] = experiment: as above; conditions: Salmonella spp. (n=29)
# Morganella morganii = experiment: as above
# Aeromonas spp. [4] = experiment: MIC by agar dilution (NCCLS M7-A4), 288 enteropathogenic isolates, gemifloxacin and 15 other antimicrobials; conditions: Aeromonas spp. N= 16
# Salmonella spp. [5] = experiment: MIC by agar dilution (NCCLS M7-A4), 288 enteropathogenic isolates, eight quinolones; conditions: for MIC: ciprofloxacin MIC ≥[…], read-out: MIC
# Streptococcus pyogenes = experiment: MIC by NCCLS broth microdilution, 1100 Japanese clinical isolates 1997-1998; conditions: Streptococcus pyogenes (n=51)
# Klebsiella pneumoniae = experiment: MIC by NCCLS reference broth microdilution, 450 respiratory tract pathogens; conditions: for MIC50 / MIC90: Klebsiella pneumoniae
# Shigella spp. = experiment: MIC by NCCLS broth microdilution, 1100 Japanese clinical isolates 1997-1998; conditions: Shigella spp. (n=34)
# [6] = tested on: Streptococcus pneumoniae and Haemophilus influenzae; experiment: MIC by broth microdilution (NCCLS), all isolates pooled
# Citrobacter freundii = experiment: MIC by NCCLS broth microdilution, 1100 Japanese clinical isolates 1997-1998
# [7] = Escherichia coli ciprofloxacin resistant (n=5)
# [8] = Escherichia coli ciprofloxacin susceptible (n=37)
# [9] = 24 h, read-out: MIC (mg/L) Range
# [10] = Haemophilus influenzae (300 isolates)
# [11] = Staphylococcus epidermidis oxacillin resistant (n=43)
# [12] = Staphylococcus epidermidis oxacillin susceptible (n=35)
# [13] = extended spectrum β-lactamase negative (n = 30)
# [14] = extended spectrum β-lactamase positive (n = 20)
compound,measurement,setting,value
"C[C@H]1COc2c(N3CCN(C)CC3)c(F)cc3c(=O)c(C(=O)O)cn1c23 [Levofloxacin, levofloxacin]",MIC Range,Escherichia coli; [7],4 to 128 µg/mL
same,MIC Range,Escherichia coli; [8],≤0.008 to 0.25 µg/mL
same,MIC50,Escherichia coli; [7],16 µg/mL
same,MIC90,"Escherichia coli; Escherichia coli ciprofloxacin resistant (n=5), values marked *: MIC80 value",16 µg/mL
same,MIC50,Escherichia coli; [8],0.032 µg/mL
same,MIC90,Escherichia coli; [8],0.063 µg/mL
same,% Susceptible,Aeromonas spp. [1],100%
same,MIC50,Aeromonas spp. [1],≤ 0.015 µg/mL
same,MIC90,Aeromonas spp. [1],≤ 0.015 µg/mL
same,MIC Range,Aeromonas spp. [1],≤0.015 to 0.06 µg/mL
same,MIC50,Klebsiella oxytoca,0.063 µg/mL
same,MIC90,Klebsiella oxytoca,4 µg/mL
same,MIC Range,Klebsiella oxytoca,0.016 to 16 µg/mL
same,MIC,Hafnia alvei; [9],0.015 to 0.03 mg/L
same,MIC,Hafnia alvei; read-out: MIC (mg/L) 50%,0.03 mg/L
same,MIC,Hafnia alvei; read-out: MIC (mg/L) 90%,0.03 mg/L
same,MIC Range,Staphylococcus aureus; Methicillin-resistant (38),0.25 to 128 µg/mL
same,MIC Range,Staphylococcus aureus; Methicillin-susceptible (9),0.125 to 1 µg/mL
same,MIC50,"Staphylococcus aureus; Staphylococcus aureus, Methicillin-resistant (38)",8 µg/mL
same,MIC90,"Staphylococcus aureus; Staphylococcus aureus, Methicillin-susceptible (9), read-out: MIC90",1 µg/mL
same,MIC,"Staphylococcus aureus; Staphylococcus aureus, S. aureus KU2240, mutant type Wild (wild strain)",0.25 µg/mL
same,MIC,"Staphylococcus aureus; Staphylococcus aureus, S. aureus KU2243, mutant type G+T (DNA gyrase and topoisomerase IV)",> 128 µg/mL
same,MIC,"Staphylococcus aureus; Staphylococcus aureus, S. aureus KU2245, mutant type G+T (DNA gyrase and topoisomerase IV)",32 µg/mL
same,MIC,"Staphylococcus aureus; Staphylococcus aureus, S. aureus KU2246, mutant type T (DNA topoisomerase IV)",1 µg/mL
same,MIC50,Haemophilus influenzae; [10],≤ 0.015 µg/mL
same,MIC Range,Haemophilus influenzae; [10],≤0.015 to 0.5 µg/mL
same,MIC90,Haemophilus influenzae; [10],0.03 µg/mL
same,MIC90,Haemophilus influenzae; β-lactamase negative (234),0.03 µg/mL
same,MIC90,Haemophilus influenzae; β-lactamase positive (66),0.03 µg/mL
same,MIC50,Moraxella catarrhalis,0.063 µg/mL
same,MIC90,Moraxella catarrhalis,0.063 µg/mL
same,MIC Range,Moraxella catarrhalis,0.031 to 0.063 µg/mL
same,MIC Range,[2]; [11],0.25 to 16 µg/mL
same,MIC Range,[2]; [12],0.063 to 8 µg/mL
same,MIC50,[2]; [11],4 µg/mL
same,MIC90,[2]; [11],8 µg/mL
same,MIC50,[2]; [12],0.25 µg/mL
same,MIC90,[2]; [12],4 µg/mL
same,MIC50,Enterococcus faecium; Enterococcus faecium (n=39),32 µg/mL
same,MIC90,Enterococcus faecium; Enterococcus faecium (n=39),128 µg/mL
same,MIC,"Enterococcus faecium; Enterococcus faecium (vanA) vancomycin resistant, strain TMS1",64 µg/mL
same,MIC,"Enterococcus faecium; Enterococcus faecium (vanA) vancomycin resistant, strain TMS2",2 µg/mL
same,MIC,"Enterococcus faecium; Enterococcus faecium (vanA) vancomycin resistant, strain TMS3",32 µg/mL
same,MIC,"Enterococcus faecium; Enterococcus faecium (vanA) vancomycin resistant, strain TMS4",32 µg/mL
same,MIC,"Enterococcus faecium; Enterococcus faecium (vanA) vancomycin resistant, strain TMS5",4 µg/mL
same,MIC,"Enterococcus faecium; Enterococcus laecium (van B) vancomycin resistant, strain TMS6",32 µg/mL
same,MIC,"Enterococcus faecium; Enterococcus laecium (van B) vancomycin resistant, strain TMS7",32 µg/mL
same,MIC,P. aeruginosa,2 µg/mL
same,MIC,Yersinia enterocolitica; [9],0.03 to 0.5 mg/L
same,MIC,Yersinia enterocolitica; read-out: MIC (mg/L) 50%,0.06 mg/L
same,MIC,Yersinia enterocolitica; read-out: MIC (mg/L) 90%,0.06 mg/L
same,MIC90,Proteus vulgaris; Proteus vulgaris,0.125 µg/mL
same,MIC Range,Proteus vulgaris; Proteus vulgaris (n=25),0.032 to 1 µg/mL
same,MIC50,"Proteus vulgaris; Proteus vulgaris (n=25), read-out: MIC50",0.063 µg/mL
same,MIC50,Salmonella spp. [3],0.063 µg/mL
same,MIC90,Salmonella spp. [3],0.063 µg/mL
same,MIC Range,Salmonella spp. [3],0.032 to 0.063 µg/mL
same,MIC90,Morganella morganii; Morganella morganii,0.125 µg/mL
same,MIC Range,Morganella morganii; Morganella morganii (n=40),0.016 to 8 µg/mL
same,MIC50,"Morganella morganii; Morganella morganii (n=40), read-out: MIC50",0.032 µg/mL
same,MIC (mg/L) Range,Aeromonas spp. [4],≤0.015 to 0.06 mg/L
same,MIC,Aeromonas spp. [4]; read-out: MIC (mg/L) 50%,≤ 0.015 mg/L
same,MIC,Aeromonas spp. [4]; read-out: MIC (mg/L) 90%,≤ 0.015 mg/L
same,MIC,Salmonella spp. [5]; S. hadar (n = 2),1 µg/mL
same,MIC,Salmonella spp. [5]; S. newport (n = 1),1 µg/mL
same,MIC,Salmonella spp. [5]; S. virchow (n = 2),0.25 µg/mL
same,% Susceptible,Salmonella spp. [5]; Salmonella spp. (n = 106),100%
same,MIC50,Salmonella spp. [5]; Salmonella spp. (n = 106),0.06 µg/mL
same,MIC90,Salmonella spp. [5]; Salmonella spp. (n = 106),0.25 µg/mL
same,MIC Range,Salmonella spp. [5]; Salmonella spp. (n = 106),0.06 to 1 µg/mL
same,MIC,"Salmonella spp. [5]; Salmonella, S. tshiongwe (n = 1)",1 µg/mL
same,MIC90,Streptococcus pyogenes,2 µg/mL
same,MIC Range,Streptococcus pyogenes,0.5 to 2 µg/mL
same,MIC Range,Klebsiella pneumoniae; Klebsiella pneumoniae (n = 50),0.15 to 1 µg/mL
same,MIC50,Klebsiella pneumoniae; Klebsiella pneumoniae (n = 50),0.06 µg/mL
same,MIC90,Klebsiella pneumoniae; Klebsiella pneumoniae (n = 50),0.5 µg/mL
same,MIC50,Klebsiella pneumoniae; [13],0.06 µg/mL
same,MIC90,Klebsiella pneumoniae; [13],0.12 µg/mL
same,MIC50,Klebsiella pneumoniae; [14],0.5 µg/mL
same,MIC90,Klebsiella pneumoniae; [14],0.5 µg/mL
same,MIC Range,Klebsiella pneumoniae; [13],0.015 to 0.5 µg/mL
same,MIC Range,Klebsiella pneumoniae; [14],0.06 to 1 µg/mL
same,MIC50,Shigella spp.,0.016 µg/mL
same,MIC90,Shigella spp.,0.063 µg/mL
same,MIC Range,Shigella spp.,0.016 to 0.063 µg/mL
same,MIC90,"[6]; all (380) isolates tested (235 S. pneumoniae, 145 H. influenzae)",1 µg/mL
same,MIC90,[6]; all isolates tested (602),1 µg/mL
same,MIC50,Citrobacter freundii; Citrobacter freundii,0.125 µg/mL
same,MIC90,Citrobacter freundii; Citrobacter freundii (n=39),1 µg/mL
same,MIC Range,Citrobacter freundii; Citrobacter freundii (n=39),0.016 to 1 µg/mL

# Reference: EP1561465A2, “Methods of use of fluoroquinolone compounds against bacteria” (LG Life Sciences, Ltd., priority 1999, dated 2001)
